Measurements taken from ChEMBL document CHEMBL1201862, “PubChem BioAssay data set” (2004).
Values belong to the molecule of their own block, whether it stands above or below them. Calls of active or inactive are those of the source.

How the values were obtained:
[1] = molecular target: G-protein coupled receptor 55 (Homo sapiens, UniProt Q9Y2T6); test: GPR55 antagonists blocking LPI-driven arrestin recruitment, primary screen, imaging, U2OS, beta-arrestin-GFP, LPI agonist (AID 2013); format: functional;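 also: antagonist potency measured as reduced agonist-driven arrestin aggregation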
Chain of G-protein coupled receptor 55 (Q9Y2T6 whole entry): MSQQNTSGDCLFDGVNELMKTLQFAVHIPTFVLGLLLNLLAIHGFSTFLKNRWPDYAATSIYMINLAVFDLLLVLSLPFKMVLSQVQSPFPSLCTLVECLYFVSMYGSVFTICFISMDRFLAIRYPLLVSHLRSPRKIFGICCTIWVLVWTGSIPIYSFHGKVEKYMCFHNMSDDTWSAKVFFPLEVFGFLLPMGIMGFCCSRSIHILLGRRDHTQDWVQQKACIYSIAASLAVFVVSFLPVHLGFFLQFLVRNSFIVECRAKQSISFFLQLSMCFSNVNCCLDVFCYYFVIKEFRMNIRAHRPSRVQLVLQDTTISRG

[2] = molecular target: Melanin-concentrating hormone receptor 1 (Homo sapiens, UniProt Q99705); test: Fluorescence-based counterscreen for antagonists of the G-protein coupled receptor 7 (GPR7): cell-based high throughput dose response assay to identify antagonists of the melanin-concentrating hormone receptor 1 (MCHR1).; format: functional
Chain of Melanin-concentrating hormone receptor 1 (Q99705 whole entry): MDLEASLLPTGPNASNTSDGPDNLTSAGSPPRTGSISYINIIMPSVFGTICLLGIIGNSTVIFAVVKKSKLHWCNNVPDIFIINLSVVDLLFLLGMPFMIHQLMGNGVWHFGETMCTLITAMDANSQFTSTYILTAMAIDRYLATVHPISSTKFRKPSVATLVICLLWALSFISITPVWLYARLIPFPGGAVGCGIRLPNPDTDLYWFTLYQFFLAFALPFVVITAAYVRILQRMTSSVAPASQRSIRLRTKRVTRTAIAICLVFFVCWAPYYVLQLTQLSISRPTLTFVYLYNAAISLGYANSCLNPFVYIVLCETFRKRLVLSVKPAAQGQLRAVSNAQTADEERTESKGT

[3] = molecular target: T1, Kappa-type opioid receptor (Homo sapiens, UniProt P41145); format: functional
T1 sequence (P41145 whole entry): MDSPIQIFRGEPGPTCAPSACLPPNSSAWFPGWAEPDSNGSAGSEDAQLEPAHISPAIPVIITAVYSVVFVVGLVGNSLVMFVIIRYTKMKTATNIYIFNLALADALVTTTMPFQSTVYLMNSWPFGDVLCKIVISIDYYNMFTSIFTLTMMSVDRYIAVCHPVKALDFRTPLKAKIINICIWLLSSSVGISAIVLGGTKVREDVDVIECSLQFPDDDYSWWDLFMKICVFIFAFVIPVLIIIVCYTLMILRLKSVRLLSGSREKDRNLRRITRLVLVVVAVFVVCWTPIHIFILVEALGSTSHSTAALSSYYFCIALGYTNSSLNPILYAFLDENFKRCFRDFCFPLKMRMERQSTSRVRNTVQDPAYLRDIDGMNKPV

[4] = molecular target: T2, Delta-type opioid receptor (Homo sapiens, UniProt P41143); test: HTS Image-Based Screen for Agonists of the DOR Receptor. [Related pubchem assays (depositor defined):AID1777, AID1786, AID2133]; format: functional
T2 sequence (P41143 whole entry): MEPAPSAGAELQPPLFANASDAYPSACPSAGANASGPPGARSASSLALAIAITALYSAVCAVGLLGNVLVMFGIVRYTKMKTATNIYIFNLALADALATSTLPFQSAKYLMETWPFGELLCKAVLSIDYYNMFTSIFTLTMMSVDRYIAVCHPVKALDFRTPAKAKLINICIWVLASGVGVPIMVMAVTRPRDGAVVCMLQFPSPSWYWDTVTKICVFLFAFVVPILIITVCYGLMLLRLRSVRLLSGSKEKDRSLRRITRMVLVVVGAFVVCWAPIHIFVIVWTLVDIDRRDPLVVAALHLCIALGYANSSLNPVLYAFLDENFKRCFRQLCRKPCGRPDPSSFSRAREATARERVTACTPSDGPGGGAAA

[5] = molecular target: T3, Neuropeptides B/W receptor type 1 (Homo sapiens, UniProt P48145); test: Fluorescence-based dose response cell-based high throughput screening assay to identify antagonists of the G-protein coupled receptor 7 (GPR7). [Related pubchem assays: 1952 (Screening assay (GPR7 antagonists).), 1880 (Summary AID.)]; format: functional
T3 sequence (P48145 whole entry): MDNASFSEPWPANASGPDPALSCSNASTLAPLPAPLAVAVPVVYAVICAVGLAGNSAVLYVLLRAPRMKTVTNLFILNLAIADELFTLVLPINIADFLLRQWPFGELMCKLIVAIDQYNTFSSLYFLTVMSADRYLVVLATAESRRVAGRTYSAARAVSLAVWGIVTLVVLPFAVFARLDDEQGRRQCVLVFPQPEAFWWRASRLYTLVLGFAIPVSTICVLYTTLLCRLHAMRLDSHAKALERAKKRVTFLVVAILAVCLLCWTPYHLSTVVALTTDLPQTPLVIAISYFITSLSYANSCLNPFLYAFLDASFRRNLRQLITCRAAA

[6] = molecular target: T2, Delta-type opioid receptor; test: HTS Image-Based Screen for Antagonists of the DOR Receptor. [Related pubchem assays (depositor defined):AID1777, AID1785, AID1786, AID2133]; format: functional
[7] = molecular target: Mu-type opioid receptor (Homo sapiens, UniProt P35372); test: HTS Image-Based Screen for Agonists of the MOR Receptor. [Related pubchem assays (depositor defined):AID1777, AID1785, AID1786, AID2133]; format: functional;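 also: imaging of beta-arrestin GFP recruitment into spots after receptor activation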
Chain of Mu-type opioid receptor (P35372 whole entry): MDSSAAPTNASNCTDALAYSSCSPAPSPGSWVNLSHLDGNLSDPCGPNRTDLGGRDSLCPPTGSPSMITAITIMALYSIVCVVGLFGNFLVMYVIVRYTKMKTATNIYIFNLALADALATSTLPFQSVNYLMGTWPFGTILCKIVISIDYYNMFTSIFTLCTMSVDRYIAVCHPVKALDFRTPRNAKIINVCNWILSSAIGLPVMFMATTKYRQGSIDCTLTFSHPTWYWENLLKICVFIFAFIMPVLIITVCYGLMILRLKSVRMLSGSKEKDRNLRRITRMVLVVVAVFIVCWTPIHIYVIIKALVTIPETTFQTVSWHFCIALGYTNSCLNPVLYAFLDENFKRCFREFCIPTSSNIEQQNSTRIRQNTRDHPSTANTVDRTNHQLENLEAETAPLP

[8] = molecular target: T4, Heat shock factor protein 1 (Mus musculus, UniProt P38532); test: HSF1 potentiators in luciferase reporter cells, confirmation, cell-based, NIH3T3, luminescence, dose retest (AID 435004); format: functional;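 also: stress induced by proteasome inhibitor MG132 added 30 min after compound; luciferase reporter driven by HSF1 response element in NIH3T3 cells; actives raise luminescence as potentiators of the MG132 stress response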
T4 sequence (P38532 whole entry): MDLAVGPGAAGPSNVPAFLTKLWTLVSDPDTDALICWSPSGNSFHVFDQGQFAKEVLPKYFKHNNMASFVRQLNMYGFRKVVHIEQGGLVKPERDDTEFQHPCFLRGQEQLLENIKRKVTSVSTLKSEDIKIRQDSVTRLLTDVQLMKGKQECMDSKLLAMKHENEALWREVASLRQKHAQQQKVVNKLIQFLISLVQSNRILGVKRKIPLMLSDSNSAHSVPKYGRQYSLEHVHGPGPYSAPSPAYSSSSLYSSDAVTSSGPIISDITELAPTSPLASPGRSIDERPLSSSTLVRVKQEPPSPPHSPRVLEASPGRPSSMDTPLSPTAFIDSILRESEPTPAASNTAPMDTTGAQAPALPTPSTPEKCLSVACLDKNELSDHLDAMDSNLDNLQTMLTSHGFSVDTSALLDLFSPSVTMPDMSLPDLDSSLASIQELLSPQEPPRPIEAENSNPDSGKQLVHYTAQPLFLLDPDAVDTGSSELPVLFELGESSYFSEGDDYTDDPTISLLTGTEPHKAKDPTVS

[9] = molecular target: T1, Kappa-type opioid receptor; format: functional; remark: listed apart in the source
[10] = molecular target: E3 ubiquitin-protein ligase XIAP (Homo sapiens, UniProt P98170); test: Counter Screen using XIAP-Bir3 for Chemical Antagonists of Bir1/2 domains of IAP-family anti-apoptotic proteins. [Related pubchem assays (depositor defined):AID1018, AID1449, AID1514, AID1638, AID1749, AID1750, AID488957, AID488963]
Chain of E3 ubiquitin-protein ligase XIAP (P98170 whole entry): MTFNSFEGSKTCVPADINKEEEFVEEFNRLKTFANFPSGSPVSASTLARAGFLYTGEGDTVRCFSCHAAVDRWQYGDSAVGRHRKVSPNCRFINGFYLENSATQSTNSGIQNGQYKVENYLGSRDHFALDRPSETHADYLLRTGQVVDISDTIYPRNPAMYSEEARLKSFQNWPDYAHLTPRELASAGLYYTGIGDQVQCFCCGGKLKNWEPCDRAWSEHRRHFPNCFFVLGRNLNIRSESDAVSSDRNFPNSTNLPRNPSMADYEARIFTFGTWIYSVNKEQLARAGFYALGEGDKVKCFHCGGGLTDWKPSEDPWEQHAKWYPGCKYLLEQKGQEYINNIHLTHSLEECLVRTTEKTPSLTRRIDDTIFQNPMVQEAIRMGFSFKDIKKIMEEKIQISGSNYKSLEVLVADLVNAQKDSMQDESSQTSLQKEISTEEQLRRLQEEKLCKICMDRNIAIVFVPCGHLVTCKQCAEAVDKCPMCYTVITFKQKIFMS

[11] = molecular target: Coagulation factor XII (Homo sapiens, UniProt P00748); format: functional;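 also: activated factor XIIa alpha cleaving a fluorogenic AMC peptide substrate; inhibitor potency from loss of enzyme activity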
Chain of Coagulation factor XII (P00748 20-372 limits assumed): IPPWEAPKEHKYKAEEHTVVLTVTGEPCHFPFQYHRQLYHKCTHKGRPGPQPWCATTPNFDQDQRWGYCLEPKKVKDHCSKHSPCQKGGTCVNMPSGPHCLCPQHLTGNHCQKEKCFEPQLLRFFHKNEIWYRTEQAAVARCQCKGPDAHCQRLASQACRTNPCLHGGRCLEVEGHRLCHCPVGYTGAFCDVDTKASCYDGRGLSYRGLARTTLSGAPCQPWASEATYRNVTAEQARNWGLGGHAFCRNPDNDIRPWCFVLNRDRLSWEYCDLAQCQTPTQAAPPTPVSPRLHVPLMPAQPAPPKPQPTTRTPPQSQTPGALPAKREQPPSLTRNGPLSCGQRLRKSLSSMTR
Chain of Coagulation factor XII (P00748 373-615 limits assumed): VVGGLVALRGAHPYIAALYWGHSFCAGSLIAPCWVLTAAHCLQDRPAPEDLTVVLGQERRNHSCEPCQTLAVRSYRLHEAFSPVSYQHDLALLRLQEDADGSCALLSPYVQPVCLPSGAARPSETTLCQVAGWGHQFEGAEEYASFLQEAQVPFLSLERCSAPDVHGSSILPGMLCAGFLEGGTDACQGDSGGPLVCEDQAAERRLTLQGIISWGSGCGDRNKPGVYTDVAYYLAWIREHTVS

[12] = molecular target: T5, Beta-galactosidase (Escherichia coli, UniProt Q8VNN2); test: beta-galactosidase enzyme inhibitors and activators, dose response, artefact control for CCR6 antagonist project, biochemical, E. coli enzyme, set 3 (AID 504712); format: functional
T5 sequence (Q8VNN2 whole entry, the tested form may be a part): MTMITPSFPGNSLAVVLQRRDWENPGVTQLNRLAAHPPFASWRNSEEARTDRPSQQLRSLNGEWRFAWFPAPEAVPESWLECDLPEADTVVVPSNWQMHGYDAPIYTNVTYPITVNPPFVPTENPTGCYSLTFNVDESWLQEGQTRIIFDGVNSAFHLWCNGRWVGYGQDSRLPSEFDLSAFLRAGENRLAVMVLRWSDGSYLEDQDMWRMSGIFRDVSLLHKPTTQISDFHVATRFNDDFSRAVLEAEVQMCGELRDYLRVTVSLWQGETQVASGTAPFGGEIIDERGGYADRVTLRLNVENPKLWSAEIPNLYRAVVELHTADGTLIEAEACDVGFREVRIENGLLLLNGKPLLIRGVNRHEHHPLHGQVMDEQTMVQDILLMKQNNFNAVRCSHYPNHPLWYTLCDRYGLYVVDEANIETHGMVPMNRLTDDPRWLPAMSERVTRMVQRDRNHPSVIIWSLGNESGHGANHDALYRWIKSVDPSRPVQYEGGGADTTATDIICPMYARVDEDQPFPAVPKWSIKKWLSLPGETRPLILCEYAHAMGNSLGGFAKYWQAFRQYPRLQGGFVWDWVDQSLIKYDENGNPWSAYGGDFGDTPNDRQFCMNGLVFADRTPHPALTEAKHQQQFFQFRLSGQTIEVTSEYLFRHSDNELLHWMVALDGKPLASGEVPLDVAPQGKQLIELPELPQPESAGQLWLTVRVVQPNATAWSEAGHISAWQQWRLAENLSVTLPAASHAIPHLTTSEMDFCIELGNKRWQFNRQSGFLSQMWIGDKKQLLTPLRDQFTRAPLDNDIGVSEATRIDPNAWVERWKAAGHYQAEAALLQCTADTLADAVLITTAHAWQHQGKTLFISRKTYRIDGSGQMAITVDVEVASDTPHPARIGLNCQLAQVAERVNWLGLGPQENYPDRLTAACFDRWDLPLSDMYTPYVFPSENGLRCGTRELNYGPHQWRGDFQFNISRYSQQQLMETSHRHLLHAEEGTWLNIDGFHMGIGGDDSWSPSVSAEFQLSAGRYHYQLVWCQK

[13] = molecular target: Photoreceptor-specific nuclear receptor (Homo sapiens, UniProt Q9Y5X4); format: functional, cell-based;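 also: CHO-S cells with Gal4-NCOR and VP16-NR2E3 two-hybrid luciferase reporter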
Chain of Photoreceptor-specific nuclear receptor (Q9Y5X4 whole entry, the tested form may be a part): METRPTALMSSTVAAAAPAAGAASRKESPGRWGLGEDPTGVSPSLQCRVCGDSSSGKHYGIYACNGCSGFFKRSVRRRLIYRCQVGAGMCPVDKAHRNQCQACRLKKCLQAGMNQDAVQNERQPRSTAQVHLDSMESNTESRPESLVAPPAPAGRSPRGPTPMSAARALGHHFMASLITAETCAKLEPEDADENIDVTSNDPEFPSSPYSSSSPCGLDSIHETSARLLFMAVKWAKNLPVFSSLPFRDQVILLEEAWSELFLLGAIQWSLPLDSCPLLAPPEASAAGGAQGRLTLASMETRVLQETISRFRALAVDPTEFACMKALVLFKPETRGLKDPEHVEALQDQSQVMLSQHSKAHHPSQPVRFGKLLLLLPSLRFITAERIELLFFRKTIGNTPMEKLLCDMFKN

[14] = molecular target: T6, Mucolipin-3 (Homo sapiens, UniProt Q8TDD5); test: Dose response cell-based high-throughput screening assay for agonists of the transient receptor potential channel ML3 (TRPML3). [Related pubchem assays: 1526, 1424, 1448 ]; format: functional
T6 sequence (Q8TDD5 whole entry): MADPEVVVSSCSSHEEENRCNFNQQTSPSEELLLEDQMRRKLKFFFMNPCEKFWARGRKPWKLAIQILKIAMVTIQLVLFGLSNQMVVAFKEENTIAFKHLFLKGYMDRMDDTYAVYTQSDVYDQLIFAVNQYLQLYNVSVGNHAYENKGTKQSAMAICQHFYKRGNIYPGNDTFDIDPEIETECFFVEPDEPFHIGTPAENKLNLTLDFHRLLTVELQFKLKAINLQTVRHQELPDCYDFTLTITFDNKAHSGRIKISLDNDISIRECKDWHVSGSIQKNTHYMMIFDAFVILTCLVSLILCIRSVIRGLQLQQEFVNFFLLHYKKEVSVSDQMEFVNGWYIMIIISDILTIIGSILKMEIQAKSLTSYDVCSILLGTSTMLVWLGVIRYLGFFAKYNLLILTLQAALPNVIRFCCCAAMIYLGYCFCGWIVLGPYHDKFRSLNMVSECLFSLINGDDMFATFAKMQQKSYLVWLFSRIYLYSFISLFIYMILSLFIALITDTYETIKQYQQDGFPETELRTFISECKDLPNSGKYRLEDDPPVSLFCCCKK

[15] = molecular target: T5, Beta-galactosidase; format: functional
[16] = molecular target: T1, Kappa-type opioid receptor; format: functional; remark: listed apart in the source
[17] = molecular target: T1, Kappa-type opioid receptor; format: functional; remark: listed apart in the source
[18] = molecular target: Ion channel NompC (Danio rerio, UniProt Q7T1G6); test: Fluorescence counterscreen assay for TRPML3 agonists: dose response cell-based high-throughput screening assay to identify agonists of the transient receptor potential channel N1 (TRPN1). [Related pubchem assays: 1526, 1424, 1448 ]; format: functional

SMILES: C[C@H](NC(=O)c1nc[nH]c1C(=O)Nc1ccc(CNC(=O)OC(C)(C)C)cc1)C(=O)OC(C)(C)C
- IC50 [1]: 2.55 µM (active)

SMILES: O=C(c1ccccn1)N(Cc1ccco1)C1(C(=O)NC2CCCC2)CCCCC1
- IC50 [2]: > 43.8 µM (not active)
- EC50 [3]: 14.6 µM
- EC50 [4]: > 32 µM (inactive)
- IC50 [5]: > 43.8 µM (not active)
- IC50 [6]: > 32 µM (inactive)
- EC50 [7]: > 32 µM (inactive)
- EC50 [8]: > 260 µM (inactive)
- EC50 [9]: 12.3 µM

SMILES: Cc1ccc(S(=O)(=O)CCN2C=CC(C(F)(F)F)=NCC2)cc1
- IC50 [11]: > 50 µM (inactive)

Other lines, results leading:

- IC50 [10]: > 20 µM (inactive)
SMILES: O=C(Nc1ccc(Br)cc1)c1ccc(N2C(=O)C3CC=CCC3C2=O)cc1 (stereo not drawn)

- IC50 [12]: > 66.6 µM (inactive)
- IC50 [13]: 3 µM (active)
- EC50 [14]: 1.16 µM (active)
- EC50 [15]: > 31.5 µM (inactive)
- IC50 [16]: > 32 µM
- IC50 [17]: 6.6 µM (active)
- EC50 [18]: > 29.9 µM (not active)
SMILES: N=C1SCC(=O)N1c1ncc(Cc2ccccc2Cl)s1
